Results taken from ChEMBL document CHEMBL5385872, “Design and syntheses of a bimolecular STING agonist based on the covalent STING antagonist” (Eur J Med Chem, 2023).
Active and inactive are the calls of the source. The calls are words filed in the database; no cut-off is given here.

Experiments:
Assay type in all cases: cell-based
[1] = biological target: T1, Stimulator of interferon genes protein (Mus musculus) (UniProt Q3TBT3); assay: Agonist activity at STING in mouse BMDC cells assessed as change in TBK1 phosphorylation (initially increase and then decreased) at 20 uM measured after 5 hrs by Western blot analysis; conditions: filed as agonist
T1 sequence (whole entry): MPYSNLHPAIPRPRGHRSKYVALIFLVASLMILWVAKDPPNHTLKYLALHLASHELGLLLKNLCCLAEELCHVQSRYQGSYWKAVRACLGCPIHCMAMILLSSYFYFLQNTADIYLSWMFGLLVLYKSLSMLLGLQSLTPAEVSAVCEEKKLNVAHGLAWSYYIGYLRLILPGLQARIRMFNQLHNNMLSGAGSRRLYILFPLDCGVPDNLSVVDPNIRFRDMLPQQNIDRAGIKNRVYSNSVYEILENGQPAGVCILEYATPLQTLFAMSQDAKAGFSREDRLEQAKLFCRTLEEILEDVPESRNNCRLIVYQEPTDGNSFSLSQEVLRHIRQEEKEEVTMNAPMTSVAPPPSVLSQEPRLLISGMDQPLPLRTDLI

[2] = biological target: T1, Stimulator of interferon genes protein (Mus musculus); assay: Agonist activity at STING in mouse BMDM cells assessed as change in TBK1 phosphorylation (initially increase and then decreased) at 20 uM measured after 5 hrs by Western blot analysis; conditions: filed as agonist
[3] = biological target: Stimulator of interferon genes protein (Homo sapiens) (UniProt Q86WV6); assay: Induction of STING-dependent gene expression in human HT-1080 cells assessed as IFNbeta mRNA expression at 20 uM incubated for 8 hrs by qRT-PCR analysis; conditions: filed as agonist
[4] = biological target: T1, Stimulator of interferon genes protein (Mus musculus); assay: Induction of STING dimerization in mouse BMDC cells assessed as dimerization (initially increase and then decreased) at 2.5 to 20 uM measured after 5 hrs by Western blot analysis; conditions: filed as agonist, dose 2.5-20 µM
[5] = biological target: T1, Stimulator of interferon genes protein (Mus musculus); assay: Induction of STING-dependent gene expression in mouse BMDC cells assessed as IFNalpha mRNA expression at 20 uM incubated for 8 hrs by qRT-PCR analysis; conditions: filed as agonist
[6] = biological target: T1, Stimulator of interferon genes protein (Mus musculus); assay: Induction of STING-dependent gene expression in mouse BMDC cells assessed as IFNbeta mRNA expression at 20 uM incubated for 8 hrs by qRT-PCR analysis; conditions: filed as agonist
[7] = biological target: Stimulator of interferon genes protein (Homo sapiens) (UniProt Q86WV6); assay: Induction of STING-dependent gene expression in human HT-1080 cells assessed as IFNalpha mRNA expression at 20 uM incubated for 8 hrs by qRT-PCR analysis; conditions: filed as agonist
[8] = biological target: T1, Stimulator of interferon genes protein (Mus musculus); assay: Induction of STING dimerization in mouse BMDM cells assessed as dimerization (initially increase and then decreased) at 2.5 to 20 uM measured after 5 hrs by Western blot analysis; conditions: filed as agonist, dose 2.5-20 µM
[9] = biological target: Stimulator of interferon genes protein (Homo sapiens) (UniProt Q86WV6); assay: Induction of oligomerization of STING in HEK-293T cells stably expressing STING-Flag ( unknown origin) measured after 4 hrs by immunoprecipitation assay; conditions: filed as agonist

Sequence of Stimulator of interferon genes protein (Homo sapiens) (Q86WV6 whole entry): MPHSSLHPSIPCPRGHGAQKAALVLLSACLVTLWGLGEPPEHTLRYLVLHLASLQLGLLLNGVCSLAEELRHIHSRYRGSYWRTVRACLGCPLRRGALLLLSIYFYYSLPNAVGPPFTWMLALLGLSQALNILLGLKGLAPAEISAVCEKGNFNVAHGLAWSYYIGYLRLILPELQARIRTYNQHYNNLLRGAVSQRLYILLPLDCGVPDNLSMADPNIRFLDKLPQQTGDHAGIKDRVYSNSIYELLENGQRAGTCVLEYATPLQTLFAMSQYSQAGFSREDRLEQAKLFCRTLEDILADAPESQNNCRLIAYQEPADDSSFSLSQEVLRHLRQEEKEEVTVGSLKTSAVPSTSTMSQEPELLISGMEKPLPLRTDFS

- Activity [1]: Active
- Activity [2]: Active
- Activity [3]: Active
- Activity [4]: Active
- Activity [5]: Active
- Activity [6]: Active
- Activity [7]: Active
- Activity [8]: Active
- Activity [9]: Active
SMILES: O=C(NCCCCCCCCCNC(=O)c1ccc([N+](=O)[O-])o1)c1ccc([N+](=O)[O-])o1
